Read-outs that look alike come from different tables or passages of the source. Blank lines part the entries; values can stand above or below the compound they belong to.
Columns and labels:
[1] = Iodine vapor detection with iodine sensitive paper disc in vial lid (Example 4); conditions: acetate buffer; cyclodextrin 50 mM
Description: Solutions of these cyclodextrins were prepared in acetate buffer or propylene glycol, both containing molecular iodine as follows. Cyclodextrins were weighed and added to vials. Saturated solutions of molecular iodine (Alfa Aesar 14248 Lot 104Z003) were then prepared in either: (a) […] acetate buffer (pH 4.5); or (b) propylene glycol.
Aliquots of each solution of the different cyclodextrins were added to vials to a final cyclodextrin concentration of 50 mM. […] The screw-top lid of each vial was fitted with an iodine sensitive paper disc (Fluka #37215, Lot SZBF1310V) that fit tightly in the lid so the paper was exposed to the atmosphere in the vial which would allow the paper to react with molecular iodine that was in the vapor phase.
At time points of: one (1) hour; six (6) hours; and twenty-four (24) hours, the color of the indicator paper on the inside of the screw-top lids were examined and photographed.

[2] = Viscosity with Brookfield DV2T viscometer (Example 7); assay type: physicochemical; conditions: for viscosity: extrapolated to zero shear
Description: Viscosity was measured using a Brookfield DV2T viscometer which allowed for the precise control of the temperature at which the viscosity was measured. The Brookfield DV2T was programmed to measured viscosity at different shear rates by systematically ramping the spindle (CP-40 or CP-52) speed up and then down as shown in FIG. 4A for propylene glycol at 25° C.
The viscosity values were fitted to a curve and extrapolated to the zero shear value to arrive at a final estimate for viscosity.
One series of samples was prepared without molecular iodine and a second series was prepared that contained 800 ppm molecular iodine. The viscosity of these samples was measured as described above using an up-down rate ramp program. The results were fitted to an Ostwald model, i.e. stress versus shear rate curve fit, and the consistency constant was reported as the viscosity.

[3] = Potassium iodide starch paper coloration versus time, vapor pressure of molecular iodine (Example 5); conditions: cyclodextrin 50 mM; for reduction in vapor pressure of molecular iodine in the acetate buffer (ranking): 0.1M acetate buffer pH 4.5; for ability to reduce the vapor pressure of molecular iodine in an aqueous environment (conclusion): acetate buffer
Excerpt: Alpha cyclodextrin (cat. number C4642, Sigma Life Sciences, Lot 2X SLBK4630V, CAS 10016-20-3), beta cyclodextrin (cat. number C4767, Sigma Life Sciences, Lot MKBV2085V, CAS 7585-39-9), gamma cyclodextrin (cat. number C4892, Sigma Life Sciences, Lot SLBL4156V, CAS 17465-86-0), methyl beta cyclodextri, (cat. number C4555, Sigma Life Sciences, Lot WXBC0745V, CAS 128446-36-6) and 2-hydroxypropyl-beta-cyclodextrin (cat. number H107, Sigma Life Sciences, Lot WXBC0083V, CAS 128446-35-5) were weighed into vials.
Aliquots of saturated molecular iodine in either propylene glycol or 0.1M acetate buffer (pH 4.5) were added to the vials to yield a final cyclodextrin concentration of 50 mM. The samples were lightly vortexed to dissolve the cyclodextrins. Control vials were prepared consisting of saturated iodine in either propylene glycol or 0.1M acetate buffer pH 4.5.
Analytical potassium iodide starch paper (Fluka #37215, Lot SZBF1310V) was cut into circle and placed inside the screw-top lid of the vials in a manner that held the paper in place once the lid was screwed onto the vial.
Provided in FIGS. 2A-2L are pictures of the starch paper taken at different time points to document the color of the starch paper versus time of exposure to the atmosphere inside of the vial. The operating assumption was that the color of the starch paper would be proportional to the time of exposure to the concentration of molecular iodine in the atmosphere inside of the vial.
The concentration of molecular iodine in the atmosphere inside of the vial is proportional to the vapor pressure of dissolved molecular iodine in the liquid phase.

[4] = cited from earlier work
[5] = cited from earlier work; remark: listed apart in the source
[6] = rats, 1 hour; cited from earlier work

color of iodine indicator paper / iodine vapor at 6 hours [1]: clearly detected | color of iodine indicator paper / iodine vapor at 24 hours [1]: deeply stained
Compound: OC[C@H]1O[C@@H]2O[C@H]3[C@H](O)[C@@H](O)[C@@H](O[C@H]4[C@H](O)[C@@H](O)[C@@H](O[C@H]5[C@H](O)[C@@H](O)[C@@H](O[C@H]6[C@H](O)[C@@H](O)[C@@H](O[C@H]7[C@H](O)[C@@H](O)[C@@H](O[C@H]8[C@H](O)[C@@H](O)[C@@H](O[C@H]9[C@H](O)[C@@H](O)[C@@H](O[C@H]1[C@H](O)[C@H]2O)O[C@@H]9CO)O[C@@H]8CO)O[C@@H]7CO)O[C@@H]6CO)O[C@@H]5CO)O[C@@H]4CO)O[C@@H]3CO [gamma cyclodextrin, γ-cyclodextrin]

viscosity ([2]; 25° C.): 59 cP | viscosity ([2]; 33° C.): 95 cP | flow behaviour ([2]; viscosity versus shear): behaves like a Newtonian fluid
Compound: CC(O)CO (stereo not drawn) [propylene glycol]

color of iodine indicator paper / iodine vapor at 6 hours [1]: clearly detected | color of iodine indicator paper / iodine vapor at 24 hours [1]: deeply stained
Compound: OC[C@H]1O[C@@H]2O[C@H]3[C@H](O)[C@@H](O)[C@@H](O[C@H]4[C@H](O)[C@@H](O)[C@@H](O[C@H]5[C@H](O)[C@@H](O)[C@@H](O[C@H]6[C@H](O)[C@@H](O)[C@@H](O[C@H]7[C@H](O)[C@@H](O)[C@@H](O[C@H]8[C@H](O)[C@@H](O)[C@@H](O[C@H]1[C@H](O)[C@H]2O)O[C@@H]8CO)O[C@@H]7CO)O[C@@H]6CO)O[C@@H]5CO)O[C@@H]4CO)O[C@@H]3CO [β-cyclodextrin]

Second part, the compound before the results:

Compound: hydroxypropyl-β-cyclodextrin [hyroxypropyl-β-cyclodextrin]
color of iodine indicator paper / iodine vapor at 24 hours [1]: clearly detected | effect on vapor pressure of molecular iodine in an aqueous environment [1]: reduces the vapor pressure of molecular iodine | reduction in vapor pressure of molecular iodine in the acetate buffer (ranking) [3]: greatest reduction in vapor pressure | ability to reduce the vapor pressure of molecular iodine in an aqueous environment (conclusion) [3]: most effective

Compound: methyl-β-cyclodextrin
effect on vapor pressure of molecular iodine in an aqueous environment [1]: reduces the vapor pressure of molecular iodine | reduction in vapor pressure of molecular iodine in the acetate buffer (ranking) [3]: greatest reduction in vapor pressure | ability to reduce the vapor pressure of molecular iodine in an aqueous environment (conclusion) [3]: most effective

Compound: II [Molecular iodine, molecular iodine]
permissible exposure limit ([4]; NIOSH, OSHA): 0.1 ppm | concentration with severe eye irritation ([4]; after 2 minutes): 1.63 ppm | concentration at which humans can work undisturbed ([4]; iodine vapor, inhalation): 0.1 ppm | concentration at which humans work with difficulty ([4]; iodine vapor, inhalation): 0.15-0.2 ppm | concentration that humans cannot tolerate ([4]; iodine vapor, inhalation): ≥ 0.3 ppm | level at which odor is detected ([4]; iodine vapor): about 0.9 ppm | maximum iodine that can build up in a closed container ([5]; 25° C., standard atmospheric pressure): ≤ 394 ppm | vapor pressure ([5]; 25° C.): 0.3 mm | vapor pressure ([5]; 38.7° C.): 1 mm | lowest lethal atmospheric concentration [6]: 80 ppm

Source: patent US11596648B2, “Emollient topical disinfectants” (priority 2016, dated 2023)
